# Tests used:
# Assay type in all cases: cell-based, influenza virus H7N9
# [1] = tested on: A/Shanghai/2/2013 virus; assay: organism not typed
# [2] = tested on: A/Shanghai/1/2013-NA^R292 (WT no. 6) virus; assay: organism not typed
# [3] = tested on: A/Shanghai/1/13 virus (mixed R/K at NA residue 292)
# [4] = MDCK, read-out: 90% effective concentration [EC90]
SMILES,concentration at which replication was completely inhibited [1] [µM],concentration at which replication was completely inhibited [2] [µM],sensitivity in MDCK cells compared to the A/Shanghai/2/2013 virus [2],"EC90 [1, 4] [µM]",sensitivity in MDCK cells relative to the A/Shanghai/2/2013 virus [3],"EC90 [2, 4] [µM]"
CC(=O)N[C@H]1[C@H]([C@H](O)[C@H](O)CO)OC(C(=O)O)=C[C@@H]1N=C(N)N [zanamivir],125,> 125,reduced sensitivity,,,
NC(=O)c1nc(F)c[nH]c1=O [favipiravir],,,,1.43,comparable dose-response curves,10.4
CCC(CC)O[C@@H]1C=C(C(=O)O)C[C@H](N)[C@H]1NC(C)=O [oseltamivir carboxylate],31.25,250,reduced sensitivity,,,

# Source: article PMC3735122 (mBio, 2013)
